The subject of data set [1] is electric shock convulsions in mice. Briefly: Anti-convulsive activity in relation to electric shock. The format is in vivo. To be noted: Mus musculus, oral, treated 1 hour beforehand, 12.5 V, 0.5 second, read-out: Anti-convulsive action Electric shock ED50. How it is done: (§1) The products according to the invention were subjected to pharmacological tests in mice in order to determine their activity on the central nervous system. We shall indicate below the various tests to which the products were subjected.
(§2) In all cases the products were administered orally.
Anti-convulsive activity in relation to electric shock
An alternating current of 12.5 V is applied for 0.5 second by means of corneal electrodes to batches of 12 mice treated 1 hour beforehand with the product to be studied. The untreated mice subjected to this electric shock undergo a convulsion of the tonic type.

The test system of another data set is motility of mice. The data set can be described thus: Spontaneous actography. In kind it is in vivo. To be noted: oral. As to the method: as §1, §2
1. Spontaneous actography
The animals are placed in individual cages through which pass two beams which strike two photoelectric cells.
During their movements, the animals (mice) intercept the beams and cause a recording on the impulse counters.
The variations in the motility of the treated animals are expressed in percentages relative to comparison animals; the sign-indicates a reduction (in percent) of the motility of the subjects.

A further data set has as its system equilibration of mice. The data set can be described thus: Rotating rod test: equilibration. In kind it is in vivo. To be noted: Mus musculus, oral, 50% of mice fall. As to the method:
as §1, §2
3. Rotating rod test: equilibration
The results are expressed as the 50% effective dose (ED50) which is the dose (in mg/kg) for which 50% of the mice fall during the test.

In data set [2] the test system is pentylenetetrazol (cardiazol) convulsions in mice. Briefly: Anti-convulsive activity in relation to cardiazol. The format is in vivo. To be noted: Mus musculus, oral, cardiazol 125 mg/kg intraperitoneally, protects 50% of animals, read-out: Anti-convulsive action Cardiazol ED50. How it is done: as §1, §2
Anti-convulsive activity in relation to cardiazol
When administered intraperitoneally at a dose of 125 mg/kg, pentylenetetrazol (or cardiazol) causes the appearance of lethal convulsions in 100% of the mice treated.
The active products administered orally prior to the cardiazol oppose the appearance of the convulsions and possibly allow the test animals to survive.
The results are expressed as the ED50, that is to say as the dose (in mg/kg) which protects 50% of the animals.

The subject of data set [3] is mice. Briefly: Anxiolytic activity: 4 plate test. In kind it is in vivo. Conditions: oral, 45 minutes after administration, lowest dose with significant effect. As to the method:
as §1, §2
Anxiolytic activity: 4 plate test
The device is a parllelopiped chamber of which the floor consists of 4 metal plates of equal area. The experimenter can create a difference of potential which corresponds to a current of intensity 0.35 mA for a duration of 0.2 second, between each plate. Each time a mouse passes from one plate to the other, it receives an electric shock.
The anxiolytic agents cause an indifference to these electric shock and as a result the treated mice cross from one plate to another more frequently than the comparison mice. 45 minutes after administration of the product to be studied, the mice are placed in the chamber for 1 minute and the number of shocks received is measured and compared with the number of shocks received by the comparison animals. The results are expressed as a percentage increase in the number of shocks received by the treated animals relative to the comparison animals (which amounts to a percentage effect for a given dose), or as a threshold dose (TD) which is the lowest dose which produces a significant effect.

The test system of data set [4] is mice pulling themselves up on a horizontal bar. The data set can be described thus: Traction test. Conditions: Mus musculus, oral, 50% of mice can no longer pull themselves up. The format is in vivo. How it is done:
as §1, §2
This consists of observing whether the animals (mice) are capable of pulling themselves up on a horizontal bar gripped by the front paws.
The results are expressed as the 50% effective dose (ED50), which is the dose (in mg/kg) for which 50% of the mice can no longer pull themselves up.

The subject of data set [5] is mice. Briefly: Toxicity. In kind it is in vivo. Conditions: oral. As to the method:
as §1, §2
Finally, for certain products, the LDo in mg/kg (for oral administration) has been provided.

In data set [6] the test system is central receptor site of the benzodiazepines. Briefly: Affinity for the central benzodiazepine receptor site, displacement of 3H-flunitrazepam in vitro. The format is binding. Conditions: mice and rats. As to the method: Studies were performed in mice and rats in order to evaluate the respective affinities of CM 6912 and of its metabolites on the central receptor site of the benzodiazepines.

The next data set concerns man. Briefly: Therapeutic evaluation in man. In kind it is in vivo. Conditions: daily dosage of 2 mg. As to the method: For this purpose, a pharmaceutical composition containing 2 mg of CM 6912 is administered once a day.
The test system of a further data set is rats. Briefly: Approach-avoidance conflict procedure in Skinner boxes (dissociation of anxiolytic and sedative activities). The format is in vivo, male Wistar rats. To be noted: intraperitoneal; for ED50: Rattus norvegicus, ip, 0.5 h, 30 minutes before the test. How it is done:
Male Wistar rats are trained in Skinner boxes (Campden) in an approach-avoidance conflict procedure (Davidson and Cook, Psychopharmacologia 1969, 15, 159). The session lasts 30 minutes and consists of a multiple VI 30 sec/FR 3 schedule (sequence: 10 minutes VI+2 minutes FR+10 minutes VI+2 minutes FR+6 minutes VI). During the conflict periods, signalled by a light cue every 3d press delivers simultaneously a pellet and an electric shock. […] Lever presses are authomatically recorded by a microcomputer: non punished responses during the VI schedule and punished responses during the FR periods. A representative benzodiazepine of formula (I) above (R3=ethyl, R4=F; Code No. CM 6912) has been injected by intraperitoneal route 30 minutes before the test.

Data set [7] in a line: Drug disposition studies after oral administration. In kind it is in vivo, several animal species and man. The source says: The originality of the mechanism of action of CM 6912 has been determined by the appearance profile of active metabolites after oral administration.
Setting [8] is: dose 0.5 mg/kg, minus sign = reduction.
Setting [9] is: oral, several animal species and man.

SMILES strings stand for the structures. Where two headings read alike, the source gives them in different places.

The ED50 is the dose that gives a 50% effect, or the effect in half of the subjects.

As to `CCOC(=O)C1N=C(c2ccccc2Cl)c2cc(Cl)ccc2NC1=O` (stereo not shown) [CM 7101, 7-chloro-3-ethoxycarbonyl-5-(2-chlorophenyl)-2-oxo-2,3-dihydro-1H-benzodiazepine-1,4], the ED50 was found to be 12 mg/kg in data set [1], 6 mg/kg with equilibration of mice, 0.75 mg/kg in [2] and 6 mg/kg in data set [4]. Besides, the “Actography, variation in motility relative to comparison animals” value with motility of mice (setting [8]) is reported as -58%. The “Anxiolysis 4 plates threshold dose (TD)” value with mice [3] is 0.5. The “Toxicity LD.” value in the data set with mice [5] is more than 300 mg/kg.

`CCOC(=O)C1N=C(c2ccccc2)c2cc(Cl)ccc2NC1=O` (stereo not shown) [CM 4279, reference compound]: the ED50 in data set [1] was more than 500 mg/kg; in the data set with equilibration of mice it was more than 100 mg/kg; in [2], 9 mg/kg; in data set [4] it was 100 mg/kg. In addition, the “Actography, variation in motility relative to comparison animals” value in the data set with motility of mice (dose 100 mg/kg) is given as “none”. Also, the “Anxiolysis 4 plates threshold dose (TD)” value in the data set on mice [3] is listed as 10. The “Toxicity LD.” value in the data set with mice [5] was more than 300 mg/kg.

On to `COC(=O)C1N=C(c2ccccc2Cl)c2cc(Cl)ccc2NC1=O` (stereo not shown) [compound 7442], for which the ED50 in data set [1] amounted to 32 mg/kg; with equilibration of mice, 8 mg/kg; in data set [2] it was 0.4 mg/kg; in [4] it was 5 mg/kg. The “Actography, variation in motility relative to comparison animals” value in the data set with motility of mice (setting [8]) was -57%. Besides, in the data set on mice [3], the “Anxiolysis 4 plates threshold dose (TD)” value stood at 0.1. The “Toxicity LD.” value with mice [5] is listed as more than 300 mg/kg.

Consider `O=C1CN=C(c2ccccc2F)c2cc(Cl)ccc2N1` [de-carbethoxy analog], for which the “displacement of 3H-flunitrazepam in vitro” value (“displacement” for short) in data set [6] is listed as “very potent”.

With `CCOC(=O)C1N=C(c2ccccc2F)c2cc(Cl)ccc2NC1=O` (stereo not shown) [CM 6912, 7-chloro-3-ethoxycarbonyl-5-(2-fluorophenyl)-2-oxo-2,3-dihydro-1H-benzodiazepine-1,4], in the data set on man, the “adverse effect in man” value is on record as “without adverse effect”. In the data set with man, the “anxiolytic properties in man” value is given as “potent anxiolytic properties”. Further, the ED50 is 12 mg/kg in [1]; 5 mg/kg with equilibration of mice; 0.6 mg/kg in data set [2]; 1.66 mg/kg in the data set on rats (read-out: anxiolytic activity ED50 (increase in punished responding)); 16 mg/kg with rats (read-out: sedative activity ED50 (decrease in unpunished responding)); 10 mg/kg in data set [4]. In the data set on motility of mice (dose 33 mg/kg, minus sign = reduction), the “Actography, variation in motility relative to comparison animals” value is recorded as -23%. Besides, in the data set on mice [3], the “Anxiolysis 4 plates threshold dose (TD)” value stood at 1. Further, the “dissociation of the anxiolytic and sedative activities” value in the data set with rats was “statistically significant”. Further, the “displacement” value in data set [6] was “weak displacers”. In addition, the biotransformation entry in data set [7] (setting [9]) is “biotransformed into the free acid”. Besides, the “stability in the gastro-intestinal tract” value in data set [7] (setting [9]) is “stable in the gastro-intestinal tract”. Besides, the “Toxicity LD.” value in the data set with mice [5] is on record as more than 300 mg/kg.

Regarding `O=C1Nc2ccc(Cl)cc2C(c2ccccc2F)=NC1O` (stereo not shown) [3-hydroxy analog], the “displacement” value in data set [6] is “very potent”.

Regarding `O=C(O)C1N=C(c2ccccc2F)c2cc(Cl)ccc2NC1=O` (stereo not shown) [free acid], in data set [6], the “displacement” value is on record as “weak displacers”. In [7] (metabolite of CM 6912), the activity of metabolite result was “inactive metabolite”.

Source of the values: patent US4587245A, “Method of treating neuropsychic disturbances by benzodiazepine derivatives and composition therefor” (Sanofi, priority 1976, dated 1986).
